Assay results: US12509450B2, “Solid forms of a dual RAF/MEK inhibitor” (Verastem, Inc., priority 2022, dated 2025)

What was measured:
[1] = Dynamic vapor sorption (DVS) moisture sorption isotherm; format: physicochemical; details: for solid form after DVS (XRPD): XRPD of post-DVS sample
Description: Samples were analyzed using a TA Instruments Q5000SA gravimetric water sorption analyzer. The weight of the sample was continuously monitored and recorded with respect to the relative humidity (RH) and time. Samples of 5-10 mg were placed in a tared, hermetically sealed aluminum DVS pan under ambient conditions. The sample pan was punctured prior to being loaded into the humidity chamber. A moisture sorption isotherm was performed at 25° C. at 10% RH intervals over a 0-90% RH range. Three cycles were carried out. If the mass gain or loss on a sorption step was less than 0.1% over 15 minutes, the next humidity interval would begin. If weight continued to change after 120 minutes at a given step, the step would time out and proceed to the next humidity interval.

[2] = Stability of Form 1 under stressed conditions (XRPD, UPLC purity, KF water content); format: physicochemical; details: for Purity (Week 1): week 1, UPLC; for Purity (Week 4): week 4, UPLC; for Water content (Week 5): week 5, KF
Description: X-ray powder diffraction patterns were obtained using a Bruker D8 equipped with a Cu Kα radiation (40 kV, 40 mA) source (λ=1.54°A), a 9-position sample holder, and a θ-2θ goniometer fitted with a Ge monochromator. The incident beam passes through a 2.0 mm divergence slit followed by a 0.2 mm antiscatter slit. The diffracted beam passes through an 8.0 mm receiving slit with 2.5° Soller slits followed by a LYNXEYE super speed detector. Samples were prepared on polished, zero-background silicon plates and run using a low background, airtight specimen dome.
A Mettler Toledo DL39 Coulometric KF Titrator was used to determine the apparent water content in samples. About 90-100 mg of the solid was used for titration. To limit the exposure of the solution to the air, the titrator opening was closed by a stopper immediately after adding samples. HYDRANAL-Coulomat AD was used as the titrant added at 40% speed. The mixing time used was 30 seconds prior to analysis.
The purity of the sample was determined using the method provided by the Analytical Development at JM. Data were collected using an Agilent […] Series UPLC system and analyzed using Chemstation software.
Form 1 solids were stored in 40° C./75% RH or 30° C./65% RH conditions. The XRPD and UPLC purity were measured at week 1 and week 4 time points. […] Additionally, water content was measured by KF at Week 5.

| Structure (SMILES) | hygroscopicity ([1]; DVS, 25° C.) | weight change between 0-90% RH ([1]; DVS, 25° C.) | weight gain observed between 80-90% RH ([1]; DVS, 25° C.) | solid form after DVS (XRPD) [1] | XRPD (Week 1) ([2]; 30° C./65% RH) | Purity (Week 1) ([2]; 30° C./65% RH) | XRPD (Week 4) ([2]; 30° C./65% RH) | Purity (Week 4) ([2]; 30° C./65% RH) | Water content (Week 5) ([2]; 30° C./65% RH) | purity determined by UPLC on storage ([2]; 40° C./75% RH or 30° C./65% RH, week 1 and week 4) | water content by KF on storage versus initial ([2]; 40° C./75% RH or 30° C./65% RH, week 5) | XRPD (Week 1) ([2]; 40° C./75% RH) | Purity (Week 1) ([2]; 40° C./75% RH) | XRPD (Week 4) ([2]; 40° C./75% RH) | Purity (Week 4) ([2]; 40° C./75% RH) | Water content (Week 5) ([2]; 40° C./75% RH) | weight change between 0-80% RH ([1]; DVS, 25° C., 0-80% RH) | weight gain at above 80% RH ([1]; DVS, 25° C., above 80% RH) |
| --- | --- | --- | --- | --- | --- | --- | --- | --- | --- | --- | --- | --- | --- | --- | --- | --- | --- | --- |
| CNS(=O)(=O)Nc1nccc(Cc2c(C)c3ccc(Oc4ncccn4)cc3oc2=O)c1F [Form 1] | slightly hygroscopic | about 1.8% | > 1% | no form change | Form 1 | 99.2% | Form 1 | 99.2% | 0.6% | remained statistically unchanged | consistent with initial water content | Form 1 | 99.2% | Form 1 | 99.2% | 0.5% | – | – |
| CNS(=O)(=O)Nc1nccc(Cc2c(C)c3ccc(Oc4ncccn4)cc3oc2=O)c1F [Form 8] | slightly hygroscopic | – | > 0.27% | converted to Form 1 | – | – | – | – | – | – | – | – | – | – | – | – | up to 0.44% | at least 1.12% |
| CNS(=O)(=O)Nc1nccc(Cc2c(C)c3ccc(Oc4ncccn4)cc3oc2=O)c1F.[K+] [Form 10] | hygroscopic | about 5.5% | – | converted to Form 1 | – | – | – | – | – | – | – | – | – | – | – | – | – | – |
